Laboratory results published in patent US20100063070A1, “COMBINATION FOR USE IN THE TREATMENT OF INFLAMMATORY DISORDERS” (priority 2006, published 2010).

Columns and labels:
[1] = tested on: zymosan-induced PMN leukocyte accumulation; assay: Zymosan-induced peritonitis in the mouse (PMN leukocytes in peritoneal lavage fluid); format: in vivo; settings: NMRI mice; 5 hours after i.p. zymosan; pemirolast 0.5 mg i.p. with zymosan; atorvastatin sodium 0.35 mg 24 hours and 90 minutes before
Experimental: The atorvastatin injection was given 24 hours before zymosan was administered i.p. and the atorvastatin injection was given 90 minutes before zymosan was administered […]. Prior to injection, atorvastatin was dissolved at 1 mg/mL in sterile PBS using sonication and warming as needed. […] The number of polymorphonuclear (PMN) leukocytes per mL of lavage fluid was counted by light microscopy (using standard morphological criteria) following staining of nuclei with Tü's solution. Lavage fluid from non-inflamed peritoneal cavities from untreated animals provided baseline levels of PMN leukocytes.

[2] = tested on: human macrophage cell-line MonoMac-6 (MM6); assay: Inhibition of macrophage proliferation (WST-1 reagent); format: cell-based; settings: 48 hours, n=5; for inhibition at 10 µM / inhibition at 30 µM / inhibition at 100 µM: Homo sapiens; for inhibition at 10 µM: MONO-MAC-6, 10 μM drug alone; for inhibition at 30 µM: MONO-MAC-6, 30 μM drug alone; for inhibition at 100 µM: MONO-MAC-6, 100 μM drug alone
Experimental: Cells from the human macrophage cell-line MonoMac-6 (MM6) (Ziegler-Heitbrock et al, Int. J. Cancer, 41, 456 (1988)) were cultured (37° C./5% CO2) in RPMI-1640 medium supplemented with 1 mM sodium pyruvate, 1× nonessential amino acids, 1-100 μg/mL insulin, 1 mM oxalacetic acid, 100 units/mL penicillin, 100 μg/mL streptomycin and 10% (v/v) fetal bovine serum. At the start of the experiment, MM6 cells were seeded in 96-well plates at a density of 1×10^5 cells/mL (100 μl per well). Proliferation of the MM6 cells was measured using the Cell Proliferation Reagent WST-1 (Roche Diagnostics Scandinavia AB, Bromma, Sweden) or by cell counting using a microscope. The WST-1 reagent is designed to be used for spectrophotometric quantification of e.g. cell growth in proliferation assays and was used according to the manufacturers' instructions. The wavelength for measuring absorbance was 450 nm and the absorbance of all untreated control cells exposed to the WST-1 reagent was between 1.0 and 2.5. Stock solutions of pemirolast (potassium salt; see Example 19 above) and rosuvastatin (sodium salt; see Example 19 above) were made in sterile saline.
Untreated MM6 cells increased from 1×10^5 cells/mL at the start of the experiment to 1.4×10^5±0.06×10^5 cells/mL and 2.3×10^5±0.10×10^5 cells/mL after 24 and 48 hours, respectively (mean values±sem, n=4 for each of the three time-points). The effects of pemirolast and/or rosuvastatin (added at the start of the experiments) on MM6 cell proliferation were studied 48 hours after start of the experiments using the WST-1 reagent described above.
The procedure described in Example 20 was repeated for atorvastatin (sodium salt; received as atorvastatin calcium as a gift from Biocon, Ltd., Bangalore, India and converted into sodium salt by firstly converting the calcium salt into the free acid by addition of aqueous hydrochloric acid and then, after isolation via extraction, adding one equivalent of aqueous NaOH).

[3] = tested on: bone marrow-derived cultured mouse mast cells (mMC); assay: Inhibition of mast cell interferon-γ formation (IgE-receptor cross-linking with TNP-BSA, Cytometric Bead Array); format: cell-based; settings: for mean IFN-γ concentration in supernatants: mMC stimulated with TNP-BSA for 24 hours, n=2
Experimental: Bone marrow-derived cultured mouse mast cells (mMC) were obtained by culturing bone marrow cells from female C57BL/6 mice. The bone marrow cells (from mouse femurs flushed with PBS) were cultured (37° C./5% CO2) in 10% X-63 enriched conditioned RPMI 1640, supplemented with 10% heat-inactivated fetal bovine serum, 4 mM L-glutamine, 50 μM 2-mercaptoethanol, 1 mM sodium pyruvate, 0.1 mM non-essential amino acids, 10 mM Hepes, 100 units/mL penicillin and 100 μg/mL streptomycin. Development of mast cells was confirmed by toluidine blue staining. The experiments were performed after 6 to 8 weeks of culture. To activate the mMC through cross-linking of cell-surface IgE-receptors, the cultured mMC were initially sensitized for 90 minutes at 37° C. (5% CO2) with a monoclonal mouse anti-TNP IgE-antibody (IgE1-b4, ATCC, Rockville, Md., USA), used as a 15% hybridoma supernatant. Cells were then subjected to two washings with PBS and re-suspended in RPMI-1640 medium supplemented with 0.2% bovine serum albumin (BSA) before the cells (0.5 mL of medium with 1×10^6 cells per mL) were activated by addition of TNP-BSA (Biosearch Technologies, San Francisco, Calif.) with a coupling ratio of 9/1 (the final TNP-BSA concentration was 100 ng/mL). The incubation (37° C./5% CO2) with TNP-BSA was 24 hours. Before the incubation with TNP-BSA, some cells were treated/incubated (37° C./5% CO2) with the test drugs pemirolast (potassium salt purchased from American Custom Chemicals Corporation, San Diego, Calif., USA) and/or rosuvastatin (extracted and purified from commercially available Crestor® tablets and isolated as calcium salt as described in Bioorganic & Medicinal Chemistry, Vol. 5, No. 5, pp 437-444, 1997 by adding CaCl2) 30 minutes prior to addition of TNP-BSA (stock solutions of the drugs were made in sterile saline). For comparison, some experiments were performed without the drug treatments. After the incubations with TNP-BSA, the samples were centrifuged at 4° C. to spin down the cells and the supernatants analysed with regard to content of mouse IFN-γ using the BD™ Cytometric Bead Array (CBA) Mouse Inflammation Kit from BD Biosciences Pharmingen, San Diego, USA (the kit was used according to the manufacturer's instructions).

Row | Compound | reduction of zymosan-induced PMN leukocyte accumulation compared with untreated animals [1] [%] | inhibition at 10 µM [2] [%] | inhibition at 30 µM [2] [%] | inhibition at 100 µM [2] [%] | mean IFN-γ concentration in supernatants ([3]; 3 μM drug alone) [µg/mL] | mean IFN-γ concentration in supernatants ([3]; 30 μM drug alone) [µg/mL] | reduction of IFN-γ compared with the untreated cells ([3]; 30 μM drug alone, TNP-BSA 24 hours) | inhibition of MM6 proliferation ([2]; 10 μM drug alone)
1 | CC(C)c1c(C(=O)Nc2ccccc2)c(-c2ccccc2)c(-c2ccc(F)cc2)n1CC[C@@H](O)C[C@@H](O)CC(=O)O [atorvastatin] | 25.9 | 19.9 | 27 | 54.4 |  |  |  | 
2 | CC(C)c1nc(N(C)S(C)(=O)=O)nc(-c2ccc(F)cc2)c1/C=C/[C@@H](O)C[C@@H](O)CC(=O)O [rosuvastatin] |  | 16.6 | 22.7 | 66.9 | 2.26 | 1.88 |  | 
3 | Cc1cccn2c(=O)c(-c3nnn[nH]3)cnc12 [pemirolast] | 10.1 |  |  | 9.4 | 2.00 | 1.74 | about 3% | very similar to that of 100 μM of pemirolast
